Measurements from paper PMC3908613 (Bioscience Reports, 2014).

Legend:
GST-Mst1 = target: T1, GST-Mst1 (Homo sapiens, UniProt Q13043); assay: Kinase assay for recombinant Mst1; type: biochemical; conditions: 100 μM ATP, myelin basic protein substrate
T1 construct: GST; purchased DSTT
T1 sequence (Q13043 1-487): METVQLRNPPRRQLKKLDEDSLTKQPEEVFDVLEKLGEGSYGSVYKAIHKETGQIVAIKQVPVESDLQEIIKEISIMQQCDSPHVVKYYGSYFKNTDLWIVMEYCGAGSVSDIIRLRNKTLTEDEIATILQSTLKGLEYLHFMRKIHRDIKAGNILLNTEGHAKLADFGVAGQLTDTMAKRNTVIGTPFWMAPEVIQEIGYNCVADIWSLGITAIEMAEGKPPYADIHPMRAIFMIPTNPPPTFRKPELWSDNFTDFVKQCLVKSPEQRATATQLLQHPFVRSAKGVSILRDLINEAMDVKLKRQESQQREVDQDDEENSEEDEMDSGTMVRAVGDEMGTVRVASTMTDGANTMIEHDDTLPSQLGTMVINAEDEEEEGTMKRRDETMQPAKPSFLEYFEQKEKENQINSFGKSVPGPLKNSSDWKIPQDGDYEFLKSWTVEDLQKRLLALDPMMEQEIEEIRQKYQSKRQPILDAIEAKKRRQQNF
Experimental: (§10) The kinase reaction for Lok and Slk was supplemented with 12.5 mM sodium glycerophosphate and 0.25 mM sodium orthovanadate. The reactions were incubated for 15–20 min at 30°C then terminated and analysed as described previously [14].

GST-Lok = target: T2, GST-Lok (Homo sapiens, UniProt O94804); assay: Kinase assay for recombinant Lok; type: biochemical; conditions: 25 μM ATP, 100 μM AXLTIDE substrate
T2 construct: GST; purchased DSTT
Experimental: as §10

Rsk2 = target: T3, Rsk2 (Mus musculus, UniProt P18654); assay: Desthiobiotin-ATP probe capture on streptavidin beads, Western blot; type: binding, C57BL/6 mice; conditions: 10 μM inhibitor, DC lysate
T3 construct: recovered on streptavidin beads following desthiobiotin-ATP labelling of DC lysates including Rsk2, Erk1/2 and p38; endogenous in cells; host or cells: mouse spleen-derived dendritic cells (SDC), lysate

Erk1/2 = target: T4, Erk1/2 (Mus musculus, UniProt P63085); assay: as above; type: binding, C57BL/6 mice; conditions: 10 μM inhibitor, DC lysate
T4 construct: recovered on streptavidin beads following desthiobiotin-ATP labelling of DC lysates including Rsk2, Erk1/2 and p38; endogenous in cells; host or cells: mouse spleen-derived dendritic cells (SDC), lysate
Experimental: (§1) SDC were cultured for at least 14 days in RPMI (without arginine and lysine, custom-made by Biosera) containing 10% dialysed FCS (Hyclone) supplemented with 84 mg/l of L-arginine (Sigma) and 40 mg/l L-lysine (Sigma) for the 'light' medium or 84 mg/l of […] or ^13C10 and 40 mg/l […] (Cambridge Isotope Laboratory) for the 'heavy' medium. Equal numbers (2×10^7) of 'light' or 'heavy' labelled SDCs were incubated in RPMI containing 0.5% FCS for 3 h in 15 cm dishes. The cells were lysed in the lysis buffer provided in the kit (Pierce). […] Labelling with the desthiobiotin ATP probe, and precipitation with streptavidin beads were performed according to the manufacturer's instructions (Pierce kinase enrichment kit or ActivXTM).

p38 = assay: as above; type: binding, C57BL/6 mice; conditions: 10 μM inhibitor, DC lysate
Experimental: as §1

Mst1 = target: T5, Mst1 (Mus musculus, UniProt Q9JI11); assay: Activity of Mst1 immunoprecipitated from BMDC; type: biochemical, C57BL/6 mice; conditions: immunoprecipitates treated with 1 μM D1870; resting and LPS-stimulated DC
T5 construct: Mst1, Lok and Slk were immunoprecipated from 150 μg, 850 μg and 1 mg of cell lysates respectively; endogenous in cells; host or cells: mouse bone-marrow-derived dendritic cells (BMDC), immunoprecipitate
T5 sequence (Q9JI11 1-487): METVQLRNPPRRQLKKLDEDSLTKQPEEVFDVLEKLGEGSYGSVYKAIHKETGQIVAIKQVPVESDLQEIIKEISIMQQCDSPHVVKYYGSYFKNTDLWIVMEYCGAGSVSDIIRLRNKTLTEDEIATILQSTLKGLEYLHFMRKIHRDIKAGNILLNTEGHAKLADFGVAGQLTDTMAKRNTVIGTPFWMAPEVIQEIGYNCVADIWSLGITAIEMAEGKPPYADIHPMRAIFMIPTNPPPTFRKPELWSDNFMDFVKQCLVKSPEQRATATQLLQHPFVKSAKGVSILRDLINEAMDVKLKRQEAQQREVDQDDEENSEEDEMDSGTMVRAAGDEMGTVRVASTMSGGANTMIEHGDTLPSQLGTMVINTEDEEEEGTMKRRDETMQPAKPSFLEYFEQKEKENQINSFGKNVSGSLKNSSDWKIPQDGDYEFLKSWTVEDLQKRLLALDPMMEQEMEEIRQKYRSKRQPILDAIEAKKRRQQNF
Experimental: (§2) Equal numbers of BMDC (1×10^7/dish) were incubated in 15 cm dishes in RPMI supplemented with 0.3% FCS for 3 h at 37°C then incubated for 30 min with or without 50 ng/ml LPS. The cells were washed once in cold PBS and lysed in the lysis buffer described above. Mst1, Lok and Slk were immunoprecipated from 150 μg, 850 μg and 1 mg of cell lysates respectively with 2 μg of anti-MST1 (Cell Signalling), anti-Slk (Bethyl) or anti-Lok (Bethyl) or control IgG (Santa Cruz Biotech) coupled to G-protein Sepharose (Amersham) for 1 h at 4°C. […] Kinase assays were performed as described above.
(§3) A combination of SILAC and nucleotide acyl
(§4) Alexander J. EDGAR*, Matthias TROST†, Colin WATTS*1 and Rossana ZARU*1
(§5) *Division of Cell Signalling and Immunolog y, University of Dundee, Dow Street, Dundee DD1 5EH, U.K., and †MRC Protein Phosphor ylation and Ubiquitylation Unit, College of Life Sciences, University of Dundee, Dow Street, Dundee DD1 5EH, U.K.
(§6) Supplementary Table S1 is available at http://www.bioscirep.
(§7) Mst1, Lok and Slk activities in DC either unstimulated or stimulated with LPS (50 ng/ml) for 30 min at 37 ◦ C. Immuno- […]
(§8) of triplicate stimulations. *P < 0.05, **P < 0.01, ***P < 0.001, ns not signiﬁcant.
(§9) 1 Correspondence may be addressed to either of these authors (email c.watts@dundee.ac.uk or r.zaru@dundee.ac.uk). […]

Lok = target: T6, Lok (Mus musculus, UniProt O55098); assay: Activity of Lok immunoprecipitated from BMDC; type: biochemical, C57BL/6 mice; conditions: immunoprecipitates treated with 1 μM D1870; resting and LPS-stimulated DC
T6 construct: Mst1, Lok and Slk were immunoprecipated from 150 μg, 850 μg and 1 mg of cell lysates respectively; endogenous in cells; host or cells: mouse bone-marrow-derived dendritic cells (BMDC), immunoprecipitate
Experimental: as §2, §3, §4, §5, §6, §7, §8, §9

Rsks = conditions: cited from earlier work
PLK1 = conditions: cited from earlier work

T6 sequence (O55098 whole entry): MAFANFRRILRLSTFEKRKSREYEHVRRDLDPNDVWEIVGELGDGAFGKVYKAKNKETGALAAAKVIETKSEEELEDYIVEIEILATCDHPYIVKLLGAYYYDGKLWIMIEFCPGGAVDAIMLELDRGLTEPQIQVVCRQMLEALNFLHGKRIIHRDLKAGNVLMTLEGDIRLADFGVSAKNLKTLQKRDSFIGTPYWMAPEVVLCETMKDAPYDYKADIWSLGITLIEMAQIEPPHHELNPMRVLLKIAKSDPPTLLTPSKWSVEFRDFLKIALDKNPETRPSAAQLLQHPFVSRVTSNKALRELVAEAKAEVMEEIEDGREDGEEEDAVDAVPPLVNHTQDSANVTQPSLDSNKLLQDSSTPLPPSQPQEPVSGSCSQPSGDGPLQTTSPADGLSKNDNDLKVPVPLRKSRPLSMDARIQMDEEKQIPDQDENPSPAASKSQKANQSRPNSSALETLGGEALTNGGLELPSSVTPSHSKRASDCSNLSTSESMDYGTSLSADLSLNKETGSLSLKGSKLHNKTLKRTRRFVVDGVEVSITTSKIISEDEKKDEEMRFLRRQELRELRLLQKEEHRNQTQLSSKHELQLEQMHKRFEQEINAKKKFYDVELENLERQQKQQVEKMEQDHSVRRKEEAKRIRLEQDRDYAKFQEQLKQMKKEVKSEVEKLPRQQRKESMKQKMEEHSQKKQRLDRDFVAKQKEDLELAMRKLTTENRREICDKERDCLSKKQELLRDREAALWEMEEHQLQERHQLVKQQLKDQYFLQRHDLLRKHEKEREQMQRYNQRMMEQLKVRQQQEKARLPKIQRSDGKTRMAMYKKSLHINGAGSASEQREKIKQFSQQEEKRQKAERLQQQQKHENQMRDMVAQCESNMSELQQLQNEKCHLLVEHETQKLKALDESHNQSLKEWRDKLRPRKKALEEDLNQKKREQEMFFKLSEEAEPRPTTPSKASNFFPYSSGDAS
T4 sequence (P63085 2-358): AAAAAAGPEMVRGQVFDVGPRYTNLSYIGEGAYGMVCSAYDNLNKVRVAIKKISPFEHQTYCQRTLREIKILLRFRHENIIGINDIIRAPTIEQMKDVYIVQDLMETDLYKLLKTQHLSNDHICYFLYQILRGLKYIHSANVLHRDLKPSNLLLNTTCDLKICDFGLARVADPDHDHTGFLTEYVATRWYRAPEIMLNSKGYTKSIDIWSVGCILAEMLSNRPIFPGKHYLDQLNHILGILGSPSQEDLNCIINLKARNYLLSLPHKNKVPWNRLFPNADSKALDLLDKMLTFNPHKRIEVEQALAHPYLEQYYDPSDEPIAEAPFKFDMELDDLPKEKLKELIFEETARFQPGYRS
T3 sequence (P18654 whole entry): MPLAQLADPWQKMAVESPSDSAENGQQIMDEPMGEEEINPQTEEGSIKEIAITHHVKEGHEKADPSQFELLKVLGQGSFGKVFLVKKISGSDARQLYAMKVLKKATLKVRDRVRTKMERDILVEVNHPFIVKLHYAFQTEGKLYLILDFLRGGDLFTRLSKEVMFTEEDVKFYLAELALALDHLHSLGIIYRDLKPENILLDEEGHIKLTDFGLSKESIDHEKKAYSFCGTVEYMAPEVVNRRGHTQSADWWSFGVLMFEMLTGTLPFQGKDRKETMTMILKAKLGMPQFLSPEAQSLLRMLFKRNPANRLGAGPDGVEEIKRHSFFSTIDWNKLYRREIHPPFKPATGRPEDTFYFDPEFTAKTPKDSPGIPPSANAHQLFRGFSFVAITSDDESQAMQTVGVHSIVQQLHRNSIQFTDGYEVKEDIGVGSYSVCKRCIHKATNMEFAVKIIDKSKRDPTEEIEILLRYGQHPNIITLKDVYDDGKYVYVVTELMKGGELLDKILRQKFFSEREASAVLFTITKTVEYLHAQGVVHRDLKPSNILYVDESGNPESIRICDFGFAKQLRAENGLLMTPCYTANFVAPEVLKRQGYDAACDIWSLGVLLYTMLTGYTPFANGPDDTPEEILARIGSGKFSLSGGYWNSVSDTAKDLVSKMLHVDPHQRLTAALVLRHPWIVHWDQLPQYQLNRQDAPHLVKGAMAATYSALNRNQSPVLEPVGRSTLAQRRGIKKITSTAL
T2 sequence (O94804 whole entry): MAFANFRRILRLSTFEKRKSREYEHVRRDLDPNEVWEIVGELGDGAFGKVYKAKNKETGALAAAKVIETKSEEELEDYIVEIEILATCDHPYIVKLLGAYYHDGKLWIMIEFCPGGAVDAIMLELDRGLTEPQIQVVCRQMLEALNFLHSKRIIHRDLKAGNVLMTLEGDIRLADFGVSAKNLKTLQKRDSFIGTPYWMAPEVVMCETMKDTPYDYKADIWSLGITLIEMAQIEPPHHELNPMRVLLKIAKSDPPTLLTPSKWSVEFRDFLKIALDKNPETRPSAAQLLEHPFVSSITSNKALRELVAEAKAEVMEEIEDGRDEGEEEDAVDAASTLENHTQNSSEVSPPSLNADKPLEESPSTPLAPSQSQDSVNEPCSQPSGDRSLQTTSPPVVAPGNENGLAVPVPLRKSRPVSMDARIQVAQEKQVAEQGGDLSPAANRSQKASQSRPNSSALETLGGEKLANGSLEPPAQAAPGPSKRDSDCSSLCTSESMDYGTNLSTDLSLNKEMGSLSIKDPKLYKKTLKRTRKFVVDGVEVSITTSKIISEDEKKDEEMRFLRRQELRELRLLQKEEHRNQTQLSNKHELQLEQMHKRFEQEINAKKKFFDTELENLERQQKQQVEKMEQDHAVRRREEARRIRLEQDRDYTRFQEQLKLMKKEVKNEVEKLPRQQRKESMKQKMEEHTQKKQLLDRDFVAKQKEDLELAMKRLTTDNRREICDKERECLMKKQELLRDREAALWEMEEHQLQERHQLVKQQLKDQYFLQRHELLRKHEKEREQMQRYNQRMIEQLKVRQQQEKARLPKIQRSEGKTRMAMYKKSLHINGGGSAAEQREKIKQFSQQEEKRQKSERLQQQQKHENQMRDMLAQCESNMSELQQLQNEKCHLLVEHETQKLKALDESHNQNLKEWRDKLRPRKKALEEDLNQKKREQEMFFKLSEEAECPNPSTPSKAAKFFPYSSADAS

CC(C)CCN1c2nc(Nc3cc(F)c(O)c(F)c3)ncc2N(C)C(=O)C1C (stereo not drawn) [D1870, BI-D1870]
IC50 (GST-Mst1): ~300 nM
IC50 (GST-Lok): 500 nM
capture of Rsk2 on streptavidin beads (Rsk2): blocked
capture of Erk1/2 on streptavidin beads (Erk1/2): not Erk1/2 or p38, was blocked
capture of p38 on streptavidin beads (p38): not Erk1/2 or p38, was blocked
kinase activity of Mst1 immunoprecipitated from DC (Mst1): substantially inhibited
kinase activity of Lok immunoprecipitated from DC (Lok): substantially inhibited
IC50 (Rsks): 10 to 30 nM
